The text below walks through data of patent US20240002370A1, “PYRROLE-TYPE COMPOUNDS AND USES THEREOF FOR TREATING VIRAL INFECTIONS” (ENYO PHARMA, priority 2020, published 2024).

In the test the test system is H1N1 (influenza A/New Caledonia/20/99). The test is described as follows: microbe, parasite or virus in culture. It is filed as cell-based. Particulars: H1N1, A549, 48 h.
For `COC1=CC(c2cc3c([nH]2)CCCC32CC2)=N/C1=C\c1[nH]c(C)cc1C` [Compound 23, (Z)-2′-(2-((3,5-dimethyl-1H-pyrrol-2-yl)methylene)-3-methoxy-2H-pyrrol-5-yl)-1′,5′,6′,7′-tetrahydrospiro[cyclopropane-1,4′-indole]], the IC50 is 77 nM.

In turn, `COC1=CC(c2cc3ccccc3[nH]2)=N/C1=C\c1[nH]c(C)cc1C` [Obatoclax, reference compound] returned an IC50 of 91 nM.

On to `COC1=CC(c2cc3c([nH]2)CCCC3C)=N/C1=C\c1[nH]c(C)cc1C` (centres unmarked) [Compound 7, (Z)-2-(2-((3,5-dimethyl-1H-pyrrol-2-yl)methylene)-3-methoxy-2H-pyrrol-5-yl)-4-methyl-4,5,6,7-tetrahydro-1H-indole], for which half-maximal inhibition (IC50) required 75 nM.

Regarding `COC1=CC(c2cc3c([nH]2)CCC(C)C3)=N/C1=C\c1[nH]c(C)cc1C` (centres unmarked) [Compound 19, (Z)-2-(2-((3,5-dimethyl-1H-pyrrol-2-yl)methylene)-3-methoxy-2H-pyrrol-5-yl)-5-methyl-4,5,6,7-tetrahydro-1H-indole], half-maximal inhibition (IC50) required 91 nM.

`COC1=CC(c2cc3c([nH]2)CCCC3)=N/C1=C\c1[nH]c(C)cc1C` [Compound 3, (Z)-2-(2-((3,5-dimethyl-1H-pyrrol-2-yl)methylene)-3-methoxy-2H-pyrrol-5-yl)-4,5,6,7-tetrahydro-1H-indole] gave an IC50 of 56 nM.

As a reminder, the IC50 is the concentration needed to halve the response being measured. The low end stands for inhibition by little substance, the high end for a need for much substance.
